Reference: US7001905B2, “Substituted diarylamines as MEK inhibitors” (Warner-Lambert Company, priority 2000, dated 2006)

Molecular target: T1, MEK (Homo sapiens, UniProt Q02750)
T1 construct: no tag is given for the 2D mutant
Assay: in vitro MEK assay
Assay type: biochemical
Settings: @ 1 μM
Description: For evaluation of direct MEK activity, 10 μg GST-MEK, is incubated in the presence of absence of test compound with 5 μg of a glutathione S-transferase fusion protein containing p44MAP kinase with a lysine to alanine mutation at position 71 (GST-MAPK-KA). This mutation eliminates kinase activity of MAPK, so only kinase activity attributed to the added MEK remains. Incubations are 15 minutes at 30° C. in a final volume of 50 μL containing 50 mM Tris (pH 7.5), […], 2, μM EGTA, and 10 μM [γ-^32P]ATP. The reaction is stopped by addition of Laemmli SDS sample buffer. Phosphorylated GST-MAPK-KA is resolved by electrophoresis on a 10% polyacrylamide gel. Radioactivity incorporated into GST-MAPK-KA is determined by autoradiography, and subsequent scintillation counting of excised bands.
Alternatively, an artificially activated MEK containing serine to glutamate mutations at positions 218 and 222 (GST-MEK-2E) is used. When these two sites are phosphorylated, MEK activity is increased. Phosphorylation of these sites can be mimicked by mutation of the serine residues to glutamate. For this assay, 5 μg GST-MEK-2E is incubated with 5 μg GST-MAPK-KA for 15 minutes at 30° C. in the same reaction buffer as described above. Reactions are terminated and analyzed as above.

T1 sequence (Q02750 whole entry S218D/S222D, form open): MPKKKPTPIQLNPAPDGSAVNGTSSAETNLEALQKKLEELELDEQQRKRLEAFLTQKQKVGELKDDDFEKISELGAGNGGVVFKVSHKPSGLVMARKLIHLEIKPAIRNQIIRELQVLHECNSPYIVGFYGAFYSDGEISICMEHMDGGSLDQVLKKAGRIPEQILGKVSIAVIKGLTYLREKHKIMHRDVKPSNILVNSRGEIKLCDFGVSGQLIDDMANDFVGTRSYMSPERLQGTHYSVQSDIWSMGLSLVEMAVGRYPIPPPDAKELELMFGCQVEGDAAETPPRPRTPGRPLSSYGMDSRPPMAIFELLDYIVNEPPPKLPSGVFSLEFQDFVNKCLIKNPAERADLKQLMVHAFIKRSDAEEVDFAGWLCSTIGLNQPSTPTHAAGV

Row | SMILES | in vitro MEK assay: % inhibition @ 1 μM [%]
1 | Cc1cc(I)ccc1N1COC(=O)c2cc(C(=O)Nc3cc[nH]n3)c(F)c(F)c21 [Example 36, 7,8-Difluoro-1-(4-iodo-2-methyl-phenyl)-4-oxo-1,4-dihydro-2H-3,1-benzoxazine-6-carboxylic acid (1H-pyrazol-3-yl)-amide] | 60
2 | Cc1cc(I)ccc1N1COC(=O)c2cc(C(=O)Nc3cccnc3)c(F)c(F)c21 [Example 37, 7,8-Difluoro-1-(4-iodo-2-methyl-phenyl)-4-oxo-1,4-dihydro-2H-3,1-benzoxazine-6-carboxylic acid pyridin-3-ylamide] | 20
3 | Cc1cc(I)ccc1N1COC(=O)c2cc(C(=O)N3CCCC(O)C3)c(F)c(F)c21 (stereo not shown) [Example 38, 7,8-Difluoro-6-(3-hydroxy-piperidine-1-carbonyl)-1-(4-iodo-2-methyl-phenyl)-1,2-dihydro-3,1-benzoxazin-4-one] | 48
4 | Cc1cc(I)ccc1N1COC(=O)c2cc(C(=O)N3CCCC(CO)C3)c(F)c(F)c21 (stereo not shown) [Example 39, 7,8-Difluoro-6-(3-hydroxymethyl-piperidine-1-carbonyl)-1-(4-iodo-2-methyl-phenyl)-1,2-dihydro-3,1-benzoxazin-4-one] | 71
5 | Cc1cc(I)ccc1N1COC(=O)c2cc(C(=O)N3CCC(O)C3)c(F)c(F)c21 (stereo not shown) [Example 40, 7,8-Difluoro-6-(3-hydroxy-pyrrolidine-1-carbonyl)-1-(4-iodo-2-methyl-phenyl)-1,2-dihydro-3,1-benzoxazin-4-one] | 42
6 | Cc1cc(I)ccc1N1COC(=O)c2cc(C(=O)N3CCC(N4CCCC4)CC3)c(F)c(F)c21 [Example 41] | 7
7 | Cc1cc(I)ccc1N1COC(=O)c2cc(C(=O)NCCN3CCOCC3)c(F)c(F)c21 [Example 42, 7,8-Difluoro-1-(4-iodo-2-methyl-phenyl)-4-oxo-1,4-dihydro-2H-3,1-benzoxazine-6-carboxylic acid (2-morpholin-4yl-ethyl)-amide] | 15
8 | Cc1cc(I)ccc1N1COC(=O)c2cc(C(=O)N3CCC(O)CC3)c(F)c(F)c21 [Example 43, 7,8-Difluoro-6-(4-hydroxy-piperidine-1-carbonyl)1-(4-iodo-2-methyl-phenyl)-1,2-dihydro-3,1-benzoxazin-4-one] | 52
9 | Cc1cc(I)ccc1N1COC(=O)c2cc(C(=O)N3CCC(CCO)CC3)c(F)c(F)c21 [Example 44, 7,8-Difluoro-6-[4-(2-hydroxy-ethyl)-piperidine-1-carbonyl]-1-(4-iodo-2-methyl-phenyl)-1,2-dihydro-3,1-benzoxazin-4-one] | 69
10 | Cc1cc(I)ccc1N1COC(=O)c2cc(C(=O)Nc3ccc(Cl)nc3)c(F)c(F)c21 [Example 45] | 62
11 | COc1ccc(NC(=O)c2cc3c(c(F)c2F)N(c2ccc(I)cc2C)COC3=O)cn1 [Example 46, 7,8-Difluoro-1-(4-iodo-2-methyl-phenyl)-4-oxo-1,4-dihydro-2H-3,1-benzoxazine-6-carboxylic acid (6-methoxy-pyridin-3-yl)amide] | 43
12 | COc1ccc2[nH]cc(CCNC(=O)c3cc4c(c(F)c3F)N(c3ccc(I)cc3C)COC4=O)c2c1 [Example 47, 7,8-Difluoro-1-(4-iodo-2-methyl-2-phenyl)-4-oxo-1,4-dihydro-2H-3,1-benzoxazine-6-carboxylic acid [2-(5-methoxy-1H-indol-3-yl)ethyl]-amide] | 0
13 | COc1ccc2c(CCNC(=O)c3cc4c(c(F)c3F)N(c3ccc(I)cc3C)COC4=O)c[nH]c2c1 [Example 48, 7,8-Difluoro-1-(4-iodo-2-methyl-phenyl)-4-oxo-1,4-dihydro-2H-3,1-benzoxazine-6-carboxylic acid [2-(6-methoxy-1H-indol-3-yl)-ethyl]-amide] | 12
